Laboratory results published in US20180194762A1 (Pharmacyclics LLC, priority 2017, published 2018).

What was measured:
Btk = biological target: T1, Btk (Homo sapiens, UniProt Q06187); assay: Btk in vitro inhibitory activity (one of Method A TR-FRET, Method B electrophoretic mobility shift, Method C radiometric filter binding); type: biochemical; settings: wild-type Btk; read-out: Btk-WT IC50
T1 construct: purified from insect cells as a full-length construct containing a N-terminal 6X-His tag; His6 (N); made in house; host or cells: insect cells (Method C)
Protocol: Example 62a: Btk In Vitro Inhibitory Activity (Method A)
Btk kinase activity is determined using a time-resolved fluorescence resonance energy transfer (TR-FRET) methodology. Measurements are performed in a reaction volume of 50 μL using 96-well assay plates. […] The reaction is quenched by the addition of 1.2 equivalents of EDTA (relative to divalent cation) in 25 μL of 1× Lance buffer (Perkin-Elmer). Streptavidin-APC (Perkin-Elmer) and Eu-labeled p-Tyr100 antibody (Perkin-Elmer) in 1× Lance buffer are added in a 25 μL volume to give final concentrations of 100 nM and 2.5 nM, respectively, and the mixture is allowed to incubate for one hour. The TR-FRET signal is measured on a multimode plate reader with an excitation wavelength (λEx) of 330 nm and detection wavelengths (λEm) of 615 and 665 nm. Activity is determined by the ratio of the fluorescence at 665 nm to that at 615 nm. For each compound, enzyme activity is measured at various concentrations of compound. Negative control reactions are performed in the absence of inhibitor in replicates of six, and two no-enzyme controls are used to determine baseline fluorescence levels. Inhibition constants, Ki(app), were obtained using the program BatchKi (Kuzmic et al. (2000), Anal. Biochem. 286:45-50). IC50s are obtained according to the equation:
IC50={Ki(app)/(1+[ATP]/Km^ATP)}+[E]total/2;
For all kinases, [ATP]=Km^ATP, [Btk]total=0.5 nM and [Lck]total=6 nM.
Example 62b: Btk In Vitro Inhibitory Activity (Method B)
Kinase activity is measured in vitro using electrophoretic mobility shift assay. The kinase reactions are assembled in a total volume of 25 μL in 384 well plates. The reactions comprise: BTK enzyme (1 nM, N-terminal His6-tagged, recombinant, full-length, human BTK purified from baculovirus Sf21 insect cell system, 293HEK, or other suitable source), inhibitor, ATP, fluorescently labeled peptide substrate (1 μM, FAM-GEEPLYWSFPAKKK-NH2) in a reaction buffer composed of 100 mM HEPES, pH7.5, 5 mM MgCl2 1 mM DTT, 0.1% bovine serum albumin, 0.01% Triton X-100, and 1% DMSO. The reaction is incubated and is quenched by the addition of termination buffer (100 mM HEPES, pH 7.5, 0.01% Triton X-100, 30 mM EDTA). The terminated reactions are analyzed using a 12 channel LabChip® 3000 microfluidic detection instrument (Caliper Life Sciences). The enzymatic phosphorylation of the peptide results in a change in net charge, enabling electrophoretic separation of product from substrate peptide. As substrate and product peptides are separated, two peaks of fluorescence are observed. Change in the relative fluorescence intensity of the substrate and product peaks is the parameter measured, reflecting enzyme activity. In the presence of an inhibitor, the ratio between product and substrate is altered: the signal of the product decreases, while the signal of the substrate increases.
Activity in each sample is determined as the product to sum ratio (PSR):P/(S+P), where P is the peak height of the product peptide and S is the peak height of the substrate peptide. For each compound, enzyme activity is measured at various concentrations (12 concentrations of compound spaced by 3× dilution intervals). Negative control samples (0%—inhibition in the absence of inhibitor) and positive control samples (100%—inhibition, in the presence of 20 mM EDTA) are assembled in replicates of four and are used to calculate %—inhibition values for each inhibitor at each concentration. Percent inhibition (Pinh) is determined using following equation:
Pinh=(PSR0%−PSRinh)/(PSR0%−PSR100%)*100, where PSRinh is the product sum ratio in the presence of inhibitor, PSR0% is the average product sum ration in the absence of inhibitor and PSR100% is the average product sum ratio in 100%—inhibition control samples.
The IC50 values of inhibitors are determined by 4 parameter sigmoidal dose-response model fitting of the inhibition curves (Pinh versus inhibitor concentration) using XLfit 4 software. […]

TEC = biological target: T2, TEC (Homo sapiens, UniProt P42680); assay: Inhibition of a panel of kinases (in vitro HotSpot kinase assay, 33P-ATP, 1 μM ATP); type: biochemical; settings: for TEC/Btk: ratio of TEC IC50 to Btk IC50 (selectivity); for IC50: HotSpot kinase assay, 1 μM ATP
T2 sequence (P42680 1-631): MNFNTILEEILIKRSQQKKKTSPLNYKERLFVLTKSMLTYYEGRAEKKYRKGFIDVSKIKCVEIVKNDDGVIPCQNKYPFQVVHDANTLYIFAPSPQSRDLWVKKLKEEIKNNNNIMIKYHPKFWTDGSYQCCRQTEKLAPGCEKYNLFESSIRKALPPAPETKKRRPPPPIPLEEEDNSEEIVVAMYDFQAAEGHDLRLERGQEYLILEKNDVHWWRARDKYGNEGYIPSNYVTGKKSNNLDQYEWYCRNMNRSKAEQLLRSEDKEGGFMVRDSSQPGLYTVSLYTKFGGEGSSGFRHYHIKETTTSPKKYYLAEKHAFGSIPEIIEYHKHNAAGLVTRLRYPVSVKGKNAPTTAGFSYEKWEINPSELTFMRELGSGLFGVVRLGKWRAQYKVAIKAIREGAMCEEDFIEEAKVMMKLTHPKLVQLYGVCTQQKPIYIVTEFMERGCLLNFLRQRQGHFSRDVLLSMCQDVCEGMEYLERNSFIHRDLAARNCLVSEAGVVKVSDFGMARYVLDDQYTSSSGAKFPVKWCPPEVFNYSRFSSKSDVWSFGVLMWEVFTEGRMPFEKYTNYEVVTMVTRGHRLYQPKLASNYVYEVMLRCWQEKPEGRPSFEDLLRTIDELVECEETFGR
Protocol: Example 63: Inhibition of a Panel of Kinases The degree of inhibition of a panel of kinases is determined using the in vitro HotSpot kinase assay (purified enzymes, ^33P-ATP, an appropriate substrate and 1 μM ATP).

T1 sequence (Q06187 whole entry): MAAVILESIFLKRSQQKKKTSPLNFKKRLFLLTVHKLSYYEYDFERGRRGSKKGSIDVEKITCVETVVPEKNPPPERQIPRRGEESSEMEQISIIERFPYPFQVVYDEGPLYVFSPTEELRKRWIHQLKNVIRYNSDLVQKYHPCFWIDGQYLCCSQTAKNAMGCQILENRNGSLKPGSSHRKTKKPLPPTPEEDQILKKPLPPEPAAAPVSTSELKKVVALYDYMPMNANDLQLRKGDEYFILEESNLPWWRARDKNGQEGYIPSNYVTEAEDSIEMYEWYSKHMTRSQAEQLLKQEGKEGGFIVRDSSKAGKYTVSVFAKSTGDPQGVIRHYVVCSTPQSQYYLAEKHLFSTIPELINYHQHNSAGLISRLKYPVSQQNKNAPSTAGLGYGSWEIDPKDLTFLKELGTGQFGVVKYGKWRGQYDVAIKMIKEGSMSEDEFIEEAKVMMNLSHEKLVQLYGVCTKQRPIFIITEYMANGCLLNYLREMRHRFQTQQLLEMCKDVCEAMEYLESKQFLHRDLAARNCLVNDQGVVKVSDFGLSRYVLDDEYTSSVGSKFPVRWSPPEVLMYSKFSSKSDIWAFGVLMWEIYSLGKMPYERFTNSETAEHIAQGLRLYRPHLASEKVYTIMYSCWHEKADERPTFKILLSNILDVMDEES

Row | Compound | IC50 (Btk) | TEC/Btk (TEC) | IC50 (TEC)
1 | CC(C)(C)c1ccc(C(=O)NCc2ccc(-c3ccnc4[nH]nc(N[C@H]5CC[C@H](O)CC5)c34)cc2F)cc1 [Compound 12, 4-tert-butyl-N-{[2-fluoro-4-(3-{[(1r,4r)-4-hydroxycyclohexyl]amino}-1H-pyrazolo[3,4-b]pyridin-4-yl)phenyl]methyl}benzamide] | 879 nM | 11 | 
2 | CC(C)(O)c1ccc(C(=O)NCc2ccc(-c3ccnc4[nH]nc(N[C@H]5CC[C@H](O)CC5)c34)cc2F)cc1 [Compound 26, N-{[2-fluoro-4-(3-{[(1r,4r)-4-hydroxycyclohexyl]amino}-1H-pyrazolo[3,4-b]pyridin-4-yl)phenyl]methyl}-4-(2-hydroxypropan-2-yl)benzamide] | 932 nM | >100 | > 10000 nM
3 | CC(C)(C)c1cc(C(=O)NCc2ccc(-c3ccnc4[nH]nc(N[C@H]5CC[C@H](O)CC5)c34)cc2F)no1 [Compound 27, 5-tert-butyl-N-{[2-fluoro-4-(3-{[(1r,4r)-4-hydroxycyclohexyl]amino}-1H-pyrazolo[3,4-b]pyridin-4-yl)phenyl]methyl}-1,2-oxazole-3-carboxamide] | 44.2 nM | 142 | 6260 nM
4 | CC(C)(C)c1ccc2c(c1)CCN(Cc1ccc(-c3ccnc4[nH]nc(N[C@@H]5CCN(C=O)C5)c34)cc1F)C2=O [Compound 60, (3R)-3-[(4-{4-[(6-tert-butyl-1-oxo-1,2,3,4-tetrahydroisoquinolin-2-yl)methyl]-3-fluorophenyl}-1H-pyrazolo[3,4-b]pyridin-3-yl)amino]pyrrolidine-1-carbaldehyde] | 21 nM |  | 7420 nM
5 | CCc1nc(C(=O)NCc2ccc(-c3ccnc4[nH]nc(N[C@@H]5CCNC5)c34)cc2F)no1 [Example 54] | > 10000 nM |  | > 10000 nM
6 | CC(C)(C)c1ccc(C(=O)NCc2ccc(-c3ccnc4[nH]nc(N[C@H]5CCN(C=O)C5)c34)cc2F)cc1 [Example 61, 4-tert-butyl-N-{[2-fluoro-4-(3-{[(3S)-1-formylpyrrolidin-3-yl]amino}-1H-pyrazolo[3,4-b]pyridin-4-yl)phenyl]methyl}benzamide] | 34.1 nM | 174 | 5950 nM
7 | C[C@H](NC(=O)c1ccc(C(C)(C)C)cc1)c1ccc(-c2ccnc3[nH]nc(N[C@@H]4CCNC4)c23)cc1 [Example 91, 4-tert-butyl-N-[(1S)-1-[4-(3-{[(3R)-pyrrolidin-3-yl]amino}-1H-pyrazolo[3,4-b]pyridin-4-yl)phenyl]ethyl]benzamide] | > 10000 nM |  | > 10000 nM
8 | C[C@H](NC(=O)c1noc(C(C)(C)C)n1)c1ccc(-c2ccnc3[nH]nc(N[C@@H]4CCN(C(=O)N(C)C)C4)c23)cc1F [Example 291, 5-tert-butyl-N-{(1S)-1-[4-(3-{[(3R)-1-(dimethylcarbamoyl)pyrroli-din-3-yl]amino}-1H-pyrazolo[3,4-b]pyridin-4-yl)-2-fluorophenyl]ethyl}-1,2,4-oxadiazole-3-carboxamide] | 41.9 nM |  | 
9 | CC1(C)Cc2cc3n(c2C1)CCN(c1nccc(-c2ccnc4[nH]nc(NC5CCNC5)c24)c1CO)C3=O (stereo not shown) [Example 297, 2-[3-(hydroxymethyl)-4-{3-[(pyrrolidin-3-yl)amino]-1H-pyrazolo[3,4-b]pyridin-4-yl}pyridin-2-yl]-7,7-dimethyl-3,4,7,8-tetrahydro-2H-cyclopenta[4,5]pyrrolo[1,2-a]pyrazin-1(6H)-one] | 323 nM |  | 
10 | CN(C)C(=O)N1CC[C@@H](Nc2n[nH]c3nccc(-c4ccnc(N5CCn6c(cc7c6CC(C)(C)C7)C5=O)c4CO)c23)C1 [Example 299, (3R)-3-({4-[2-(7,7-dimethyl-1-oxo-1,3,4,6,7,8-hexahydro-2H-cyclopenta[4,5]pyrrolo[1,2-a]pyrazin-2-yl)-3-(hydroxymethyl)pyridin-4-yl]-1H-pyrazolo[3,4-b]pyridin-3-yl}amino)-N,N-dimethylpyrrolidine-1-carboxamide] | 175 nM |  | 
11 | CC(C)Cc1cc(C(=O)NCc2ccc(-c3ccnc4[nH]nc(N[C@@H]5CCCN(C(=O)N(C)C)[C@@H]5C)c34)cc2F)no1 [Example 306, (2R,3R)-3-({4-[3-fluoro-4-({[5-(2-methylpropyl)-1,2-oxazole-3-carbonyl]amino}methyl)phenyl]-1H-pyrazolo[3,4-b]pyridin-3-yl}amino)-N,N,2-trimethylpiperidine-1-carboxamide] | 531 nM |  | 
12 | C[C@H]1CC[C@@H](N)CN1c1n[nH]c2nccc(-c3ccc(CNC(=O)c4cc(C(C)(C)C)on4)c(F)c3)c12 [Example 322, N-[(4-{3-[(2S,5R)-5-amino-2-methylpiperidin-1-yl]-1H-pyrazolo[3,4-b]pyridin-4-yl}-2-fluorophenyl)methyl]-5-tert-butyl-1,2-oxazole-3-carboxamide] | 156 nM |  | 
13 | CN(C)C(=O)N1CC[C@@H](Nc2n[nH]c3nccc(-c4ccc(CNC(=O)c5coc(C6CCC6)n5)c(F)c4)c23)C1 [Example 328, 2-cyclobutyl-N-{[4-(3-{[(3R)-1-(dimethylcarbamoyl)pyrroli-din-3-yl]amino}-1H-pyrazolo[3,4-b]pyridin-4-yl)-2-fluorophenyl]methyl}-1,3-oxazole-4-carboxamide] | 509 nM |  | 
14 | CN1CCN(c2n[nH]c3nccc(-c4ccc(CNC(=O)c5nc(C(C)(C)C)no5)c(F)c4)c23)C(=O)C1=O [Example 381, 3-tert-butyl-N-({2-fluoro-4-[3-(4-methyl-2,3-dioxopiperazin-1-yl)-1H-pyrazolo[3,4-b]pyridin-4-yl]phenyl}methyl)-1,2,4-oxadiazole-5-carboxamide] | 183 nM |  | 
15 | CN1C[C@@H](Nc2n[nH]c3nccc(-c4ccc(CNC(=O)c5nc(C(C)(C)C)no5)c(F)c4)c23)CC1=O [Example 392, 3-tert-butyl-N-{[2-fluoro-4-(3-{[(3S)-1-methyl-5-oxopyrrolidin-3-yl]amino}-1H-pyrazolo[3,4-b]pyridin-4-yl)phenyl]methyl}-1,2,4-oxadiazole-5-carboxamide] | 5.64 nM |  | 
